Tests used:
Type in all cases: biochemical
EPH-B1 = target: T1, EPH-B1 (Homo sapiens, UniProt P54762); assay: Kinase profiling EPH-B1; conditions: 100 micromolar inhibitor concentration, 100 is no change
T1 sequence (P54762 18-984): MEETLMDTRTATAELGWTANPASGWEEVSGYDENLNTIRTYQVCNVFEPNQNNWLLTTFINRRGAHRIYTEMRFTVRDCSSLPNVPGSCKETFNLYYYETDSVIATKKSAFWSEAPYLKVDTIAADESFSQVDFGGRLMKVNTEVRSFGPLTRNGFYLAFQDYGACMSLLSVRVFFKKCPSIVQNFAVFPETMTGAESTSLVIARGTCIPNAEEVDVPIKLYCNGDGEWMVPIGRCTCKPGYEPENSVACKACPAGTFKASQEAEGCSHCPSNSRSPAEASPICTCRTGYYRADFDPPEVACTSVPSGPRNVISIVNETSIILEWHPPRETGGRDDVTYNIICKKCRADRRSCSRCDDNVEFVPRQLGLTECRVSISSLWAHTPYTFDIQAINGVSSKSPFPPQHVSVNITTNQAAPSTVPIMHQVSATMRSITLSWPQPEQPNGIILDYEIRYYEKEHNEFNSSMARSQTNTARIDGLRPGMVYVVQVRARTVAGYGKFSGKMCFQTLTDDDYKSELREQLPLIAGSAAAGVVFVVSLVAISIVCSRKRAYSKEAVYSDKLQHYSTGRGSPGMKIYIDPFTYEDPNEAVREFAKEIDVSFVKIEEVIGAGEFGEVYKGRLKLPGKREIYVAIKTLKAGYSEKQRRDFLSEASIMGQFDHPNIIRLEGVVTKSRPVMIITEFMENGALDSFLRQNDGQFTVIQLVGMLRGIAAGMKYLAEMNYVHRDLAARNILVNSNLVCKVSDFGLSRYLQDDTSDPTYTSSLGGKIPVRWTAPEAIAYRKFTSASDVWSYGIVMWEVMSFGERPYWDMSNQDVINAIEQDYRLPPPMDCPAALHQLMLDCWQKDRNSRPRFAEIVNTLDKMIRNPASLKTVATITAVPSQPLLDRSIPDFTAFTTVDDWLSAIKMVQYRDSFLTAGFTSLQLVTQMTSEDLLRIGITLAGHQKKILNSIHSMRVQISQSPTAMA
Excerpt: (§1) Any value less that 25 is considered to be highly significant inhibition.

PAK5 = PAK5 (Homo sapiens, UniProt Q9P286); assay: Kinase profiling PAK5; conditions: 100 micromolar inhibitor concentration, 100 is no change
Excerpt: as §1

CK1γ2 = CK1γ2 (Homo sapiens, UniProt P78368); assay: Kinase profiling CK1γ2; conditions: 100 micromolar inhibitor concentration, 100 is no change
Excerpt: as §1

MLK1 = MLK1 (Homo sapiens, UniProt P80192); assay: Kinase profiling MLK1; conditions: 100 micromolar inhibitor concentration, 100 is no change
Excerpt: as §1

AMPK = assay: Kinase profiling AMPK; conditions: 100 micromolar inhibitor concentration; 100 is no change
Excerpt: as §1

PHK = assay: Kinase profiling PHK; conditions: 100 micromolar inhibitor concentration; 100 is no change
Excerpt: as §1

NEK2a = target: T2, NEK2a (Homo sapiens, UniProt P51955); assay: Kinase profiling NEK2a; conditions: 100 micromolar inhibitor concentration, 100 is no change
T2 sequence (P51955 1-445): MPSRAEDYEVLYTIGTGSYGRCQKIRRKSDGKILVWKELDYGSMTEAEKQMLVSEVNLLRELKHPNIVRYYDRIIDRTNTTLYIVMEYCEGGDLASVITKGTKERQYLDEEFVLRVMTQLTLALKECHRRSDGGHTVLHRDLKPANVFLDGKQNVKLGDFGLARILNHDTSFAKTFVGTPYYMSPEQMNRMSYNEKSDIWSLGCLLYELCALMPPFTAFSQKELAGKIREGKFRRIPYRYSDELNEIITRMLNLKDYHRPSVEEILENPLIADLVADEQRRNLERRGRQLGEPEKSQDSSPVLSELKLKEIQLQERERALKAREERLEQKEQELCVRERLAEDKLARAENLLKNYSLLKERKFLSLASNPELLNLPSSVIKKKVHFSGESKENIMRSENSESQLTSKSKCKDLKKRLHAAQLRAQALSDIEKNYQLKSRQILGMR
Excerpt: as §1

HIPK1 = HIPK1 (Homo sapiens, UniProt Q86Z02); assay: Kinase profiling HIPK1; conditions: 100 micromolar inhibitor concentration, 100 is no change
Excerpt: as §1

GCK = target: T3, GCK (Homo sapiens, UniProt Q12851); assay: Kinase profiling GCK; conditions: 100 micromolar inhibitor concentration, 100 is no change
T3 sequence (Q12851 1-820): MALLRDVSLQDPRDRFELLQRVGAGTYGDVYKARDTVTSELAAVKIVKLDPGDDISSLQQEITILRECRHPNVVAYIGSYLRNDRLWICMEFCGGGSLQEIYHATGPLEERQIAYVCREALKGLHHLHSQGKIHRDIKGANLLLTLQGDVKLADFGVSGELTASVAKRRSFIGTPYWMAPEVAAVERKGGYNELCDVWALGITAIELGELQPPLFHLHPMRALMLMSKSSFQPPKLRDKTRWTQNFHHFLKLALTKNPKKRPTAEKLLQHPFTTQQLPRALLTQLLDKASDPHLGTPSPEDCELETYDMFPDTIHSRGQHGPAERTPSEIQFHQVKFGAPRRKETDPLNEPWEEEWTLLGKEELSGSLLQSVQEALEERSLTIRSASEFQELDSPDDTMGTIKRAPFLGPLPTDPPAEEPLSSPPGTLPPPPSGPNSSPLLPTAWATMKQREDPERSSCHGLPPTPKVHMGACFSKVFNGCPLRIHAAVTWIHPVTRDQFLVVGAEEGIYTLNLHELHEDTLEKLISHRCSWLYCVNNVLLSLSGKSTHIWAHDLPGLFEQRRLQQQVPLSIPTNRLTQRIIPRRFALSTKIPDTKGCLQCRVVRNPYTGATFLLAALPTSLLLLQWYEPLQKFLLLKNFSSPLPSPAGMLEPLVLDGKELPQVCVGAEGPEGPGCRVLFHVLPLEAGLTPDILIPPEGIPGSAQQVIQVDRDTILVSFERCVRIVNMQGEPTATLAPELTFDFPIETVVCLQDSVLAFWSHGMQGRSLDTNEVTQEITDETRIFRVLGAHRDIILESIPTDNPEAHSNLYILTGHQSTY
Excerpt: as §1

TESK1 = TESK1 (Homo sapiens, UniProt Q15569); assay: Kinase profiling TESK1; conditions: 100 micromolar inhibitor concentration, 100 is no change
Excerpt: as §1

TTBK2 = TTBK2 (Homo sapiens, UniProt Q6IQ55); assay: Kinase profiling TTBK2; conditions: 100 micromolar inhibitor concentration, 100 is no change
Excerpt: as §1

Sequence of CK1γ2 (P78368 whole entry): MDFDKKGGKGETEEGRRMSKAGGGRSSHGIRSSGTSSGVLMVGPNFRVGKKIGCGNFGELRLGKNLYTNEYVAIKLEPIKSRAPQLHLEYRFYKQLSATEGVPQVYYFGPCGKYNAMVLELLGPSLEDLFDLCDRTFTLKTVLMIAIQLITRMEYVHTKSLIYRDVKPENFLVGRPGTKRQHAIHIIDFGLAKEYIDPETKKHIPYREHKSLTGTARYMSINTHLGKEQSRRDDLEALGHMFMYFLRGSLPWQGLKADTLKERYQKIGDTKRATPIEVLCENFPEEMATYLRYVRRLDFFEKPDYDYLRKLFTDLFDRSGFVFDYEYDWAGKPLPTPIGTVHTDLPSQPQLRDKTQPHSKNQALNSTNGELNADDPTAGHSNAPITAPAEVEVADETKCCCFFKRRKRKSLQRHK
Sequence of TESK1 (Q15569 whole entry, species assumed): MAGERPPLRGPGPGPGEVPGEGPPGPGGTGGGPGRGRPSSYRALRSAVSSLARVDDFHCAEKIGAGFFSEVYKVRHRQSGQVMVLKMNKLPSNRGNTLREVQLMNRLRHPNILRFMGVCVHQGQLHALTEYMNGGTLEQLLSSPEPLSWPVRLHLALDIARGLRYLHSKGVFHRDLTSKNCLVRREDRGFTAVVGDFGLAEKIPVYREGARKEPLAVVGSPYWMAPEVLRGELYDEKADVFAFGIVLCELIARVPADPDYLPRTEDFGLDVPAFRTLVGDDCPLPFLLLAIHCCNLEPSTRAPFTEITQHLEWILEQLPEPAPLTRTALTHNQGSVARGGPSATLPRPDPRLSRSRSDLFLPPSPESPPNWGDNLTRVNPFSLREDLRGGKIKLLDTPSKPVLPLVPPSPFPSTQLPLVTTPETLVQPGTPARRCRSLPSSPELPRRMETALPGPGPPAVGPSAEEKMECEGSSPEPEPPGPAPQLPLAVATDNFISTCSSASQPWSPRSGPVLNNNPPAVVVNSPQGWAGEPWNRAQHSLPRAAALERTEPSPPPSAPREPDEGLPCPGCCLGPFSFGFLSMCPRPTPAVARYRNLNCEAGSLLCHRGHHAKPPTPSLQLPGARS
Sequence of MLK1 (P80192 whole entry, species assumed): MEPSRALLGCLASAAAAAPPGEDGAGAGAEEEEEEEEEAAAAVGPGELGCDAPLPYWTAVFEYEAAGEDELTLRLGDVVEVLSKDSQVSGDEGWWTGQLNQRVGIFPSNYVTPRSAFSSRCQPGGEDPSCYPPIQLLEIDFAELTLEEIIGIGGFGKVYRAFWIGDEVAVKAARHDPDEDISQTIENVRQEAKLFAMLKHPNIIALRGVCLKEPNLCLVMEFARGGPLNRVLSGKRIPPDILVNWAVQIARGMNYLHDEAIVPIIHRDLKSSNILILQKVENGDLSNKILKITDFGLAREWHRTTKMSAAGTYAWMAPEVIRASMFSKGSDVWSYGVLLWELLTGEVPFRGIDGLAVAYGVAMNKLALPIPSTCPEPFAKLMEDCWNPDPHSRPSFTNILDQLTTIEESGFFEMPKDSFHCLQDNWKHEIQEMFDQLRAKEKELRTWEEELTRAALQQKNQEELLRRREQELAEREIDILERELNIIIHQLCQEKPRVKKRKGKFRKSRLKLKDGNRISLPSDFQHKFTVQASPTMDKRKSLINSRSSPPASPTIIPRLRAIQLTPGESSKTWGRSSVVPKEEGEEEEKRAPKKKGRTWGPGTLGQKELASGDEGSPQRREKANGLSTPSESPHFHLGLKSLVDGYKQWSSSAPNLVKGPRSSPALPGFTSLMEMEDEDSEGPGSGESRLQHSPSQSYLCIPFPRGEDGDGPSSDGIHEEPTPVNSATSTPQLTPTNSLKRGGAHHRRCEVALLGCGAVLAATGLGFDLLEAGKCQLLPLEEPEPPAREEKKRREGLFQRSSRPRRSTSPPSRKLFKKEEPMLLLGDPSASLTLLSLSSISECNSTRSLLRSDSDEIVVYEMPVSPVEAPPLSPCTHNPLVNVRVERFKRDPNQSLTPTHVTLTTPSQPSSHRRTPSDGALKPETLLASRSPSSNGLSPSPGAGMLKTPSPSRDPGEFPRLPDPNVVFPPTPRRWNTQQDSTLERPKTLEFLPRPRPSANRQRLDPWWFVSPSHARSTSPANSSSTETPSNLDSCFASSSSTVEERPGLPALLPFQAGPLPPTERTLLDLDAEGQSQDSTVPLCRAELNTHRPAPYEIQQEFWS
Sequence of PAK5 (Q9P286 whole entry): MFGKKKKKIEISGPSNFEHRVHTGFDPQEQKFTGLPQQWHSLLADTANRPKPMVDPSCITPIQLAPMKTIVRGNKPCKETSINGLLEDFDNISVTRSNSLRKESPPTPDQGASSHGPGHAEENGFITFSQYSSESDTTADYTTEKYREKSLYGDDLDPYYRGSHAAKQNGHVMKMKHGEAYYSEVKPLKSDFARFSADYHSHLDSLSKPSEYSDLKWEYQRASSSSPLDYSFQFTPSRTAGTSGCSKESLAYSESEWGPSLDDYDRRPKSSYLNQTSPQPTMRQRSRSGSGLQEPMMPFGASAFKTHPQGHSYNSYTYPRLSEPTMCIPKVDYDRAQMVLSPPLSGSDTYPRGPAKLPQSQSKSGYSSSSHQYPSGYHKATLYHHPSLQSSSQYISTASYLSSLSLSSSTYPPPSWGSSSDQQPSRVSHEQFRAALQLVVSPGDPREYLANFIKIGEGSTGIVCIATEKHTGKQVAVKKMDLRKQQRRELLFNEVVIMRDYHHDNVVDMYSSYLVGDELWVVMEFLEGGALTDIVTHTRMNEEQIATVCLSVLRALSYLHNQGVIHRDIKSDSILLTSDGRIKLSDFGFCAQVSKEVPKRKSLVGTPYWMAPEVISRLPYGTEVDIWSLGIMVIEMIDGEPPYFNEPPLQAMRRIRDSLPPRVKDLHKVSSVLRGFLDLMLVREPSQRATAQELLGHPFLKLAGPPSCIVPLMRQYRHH
Sequence of TTBK2 (Q6IQ55 whole entry, species assumed): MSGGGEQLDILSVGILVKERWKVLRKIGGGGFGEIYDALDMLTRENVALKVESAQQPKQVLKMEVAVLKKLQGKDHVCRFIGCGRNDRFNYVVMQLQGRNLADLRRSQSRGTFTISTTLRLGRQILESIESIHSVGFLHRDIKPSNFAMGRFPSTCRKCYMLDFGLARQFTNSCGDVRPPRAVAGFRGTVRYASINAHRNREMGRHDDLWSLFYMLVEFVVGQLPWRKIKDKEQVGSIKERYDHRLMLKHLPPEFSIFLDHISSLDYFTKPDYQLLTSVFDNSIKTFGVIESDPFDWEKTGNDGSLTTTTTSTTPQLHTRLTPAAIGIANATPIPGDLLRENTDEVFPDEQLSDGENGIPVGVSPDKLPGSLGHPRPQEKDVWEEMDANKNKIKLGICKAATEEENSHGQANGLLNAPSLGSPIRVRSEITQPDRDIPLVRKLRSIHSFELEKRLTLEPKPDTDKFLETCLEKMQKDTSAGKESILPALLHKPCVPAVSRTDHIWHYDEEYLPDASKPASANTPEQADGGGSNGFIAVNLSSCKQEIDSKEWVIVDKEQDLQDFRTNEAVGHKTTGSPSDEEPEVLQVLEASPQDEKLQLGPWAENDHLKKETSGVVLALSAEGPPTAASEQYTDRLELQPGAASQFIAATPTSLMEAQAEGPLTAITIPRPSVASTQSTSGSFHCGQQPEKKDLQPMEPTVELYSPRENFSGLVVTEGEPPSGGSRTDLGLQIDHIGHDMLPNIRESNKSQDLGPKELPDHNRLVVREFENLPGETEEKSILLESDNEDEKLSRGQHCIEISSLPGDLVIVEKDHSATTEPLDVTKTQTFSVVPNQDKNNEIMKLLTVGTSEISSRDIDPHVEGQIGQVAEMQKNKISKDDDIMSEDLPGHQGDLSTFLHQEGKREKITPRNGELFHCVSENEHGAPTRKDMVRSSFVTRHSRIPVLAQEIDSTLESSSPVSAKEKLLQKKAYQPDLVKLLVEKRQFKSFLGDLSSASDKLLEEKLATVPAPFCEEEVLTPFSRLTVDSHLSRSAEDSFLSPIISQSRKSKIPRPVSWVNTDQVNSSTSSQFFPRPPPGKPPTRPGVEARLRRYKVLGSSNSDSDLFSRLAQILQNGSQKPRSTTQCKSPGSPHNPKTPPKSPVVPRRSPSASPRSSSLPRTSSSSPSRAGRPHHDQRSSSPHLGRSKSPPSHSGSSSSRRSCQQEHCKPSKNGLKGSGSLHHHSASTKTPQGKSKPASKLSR

SMILES	residual kinase activity, EPH-B1 (EPH-B1)	residual kinase activity, PAK5 (PAK5)	residual kinase activity, CK1γ2 (CK1γ2)	residual kinase activity, MLK1 (MLK1)	residual kinase activity, AMPK (AMPK)	residual kinase activity, PHK (PHK)	residual kinase activity, NEK2a (NEK2a)	residual kinase activity, HIPK1 (HIPK1)	residual kinase activity, GCK (GCK)	residual kinase activity, TESK1 (TESK1)	residual kinase activity, TTBK2 (TTBK2)	remaining activity at 100 µM (EPH-B1; read-out: residual kinase activity, EPH-B1) [%]	remaining activity at 100 µM (PAK5; read-out: residual kinase activity, PAK5) [%]	remaining activity at 100 µM (CK1γ2; read-out: residual kinase activity, CK1γ2) [%]	remaining activity at 100 µM (MLK1; read-out: residual kinase activity, MLK1) [%]	remaining activity at 100 µM (NEK2a; read-out: residual kinase activity, NEK2a) [%]	remaining activity at 100 µM (HIPK1; read-out: residual kinase activity, HIPK1) [%]	remaining activity at 100 µM (GCK; read-out: residual kinase activity, GCK) [%]	remaining activity at 100 µM (TESK1; read-out: residual kinase activity, TESK1) [%]	remaining activity at 100 µM (TTBK2; read-out: residual kinase activity, TTBK2) [%]
CC(=O)Nc1nc2cc(C)ccc2s1 [Compound 03-76]	103	107	54	57	77	87	95	53	35	106	97	–	–	–	–	–	–	–	–	–
CC(=O)Nc1nc2cc(F)ccc2s1 [Compound 03-77]	–	–	–	–	73	89	–	–	–	–	–	103	111	22	58	90	40	8	106	93
O=C(Nc1nc2ccc(O)cc2s1)c1ccncc1 [Compound 08-42]	93	79	62	33	61	58	79	44	27	73	74	–	–	–	–	–	–	–	–	–
O=C(Nc1nc2ccc(O)cc2s1)c1cccnc1 [Compound 08-44]	93	88	20	13	48	43	74	43	31	70	51	–	–	–	–	–	–	–	–	–

From patent US10231954B2, “Neurodegenerative therapies” (LYTIX BIOPHARMA AS, priority 2014, dated 2019)
